Measurements: ChEMBL document CHEMBL5385882, “Rational design and appraisal of selective Cdc2-Like kinase 1 (Clk1) inhibitors as novel autophagy inducers for the treatment of acute liver injury (ALI)” (Eur J Med Chem, 2023)

Tests used:
[1] = target: T1, Dual specificity protein kinase CLK1 (Homo sapiens, UniProt P49759); experiment: Inhibition of human 130-end recombinant CLK1 assessed as remaining activity using ERMRPRKRQGSVR as substrate by [gamma-32P]ATP binding based scintillation counting based analysis
Target sequence in this assay (P49759 whole entry): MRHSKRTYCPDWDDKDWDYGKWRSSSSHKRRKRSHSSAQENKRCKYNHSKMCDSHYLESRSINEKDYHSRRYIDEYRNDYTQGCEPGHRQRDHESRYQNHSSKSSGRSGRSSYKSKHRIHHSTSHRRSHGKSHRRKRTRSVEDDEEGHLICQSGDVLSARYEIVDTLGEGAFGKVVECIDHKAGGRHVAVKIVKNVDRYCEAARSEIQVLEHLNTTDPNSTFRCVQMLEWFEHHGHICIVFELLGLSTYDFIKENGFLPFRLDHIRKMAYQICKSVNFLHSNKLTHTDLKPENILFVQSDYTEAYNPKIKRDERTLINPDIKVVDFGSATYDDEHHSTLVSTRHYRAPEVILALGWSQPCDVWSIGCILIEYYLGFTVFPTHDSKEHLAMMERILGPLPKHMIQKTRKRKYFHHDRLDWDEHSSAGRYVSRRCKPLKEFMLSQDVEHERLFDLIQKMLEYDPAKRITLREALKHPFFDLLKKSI

[2] = organism: Homo sapiens; experiment: Selectivity index, ratio of IC50 for inhibition of human full length recombinant DYRK1A to IC50 for inhibition of human 130-end recombinant CLK1
[3] = target: T2, Dual specificity tyrosine-phosphorylation-regulated kinase 1A (Homo sapiens, UniProt Q13627); experiment: Inhibition of human full length recombinant DYRK1A assessed as remaining activity using RRRFRPASPLRGPP as substrate at 100 nM by [gamma-32P]ATP binding based scintillation counting based analysis relative to control
[4] = target: T1, Dual specificity protein kinase CLK1; experiment: Inhibition of human 130-end recombinant CLK1 assessed as remaining activity using ERMRPRKRQGSVR as substrate at 100 nM by [gamma-32P]ATP binding based scintillation counting based analysis relative to control
Target sequence in this assay (P49759 whole entry, looked up): as the sequence (P49759 whole entry) above

[5] = target: T2, Dual specificity tyrosine-phosphorylation-regulated kinase 1A; experiment: Inhibition of human full length recombinant DYRK1A assessed as remaining activity using RRRFRPASPLRGPP as substrate by [gamma-32P]ATP binding based scintillation counting based analysis

IC50 [1] [nM] | Selectivity Index [2] | Activity [3] [%] | Activity [4] [%] | IC50 [5] [nM] | SMILES
458 | 1.7 | 108 | 80 | 765 | Fc1cc(F)cc(CNc2cnc3[nH]cc(-c4ccc(C(F)(F)F)cc4)c3c2)c1
– | – | 110 | 91 | – | COc1ccc(-c2cnc3ccc(NCc4ccc(F)cc4)cn23)cc1
15 | 6.5 | 40 | 3 | 97 | COc1ccc(-c2c[nH]c3ncc(NCc4cc(F)cc(F)c4)cc23)cc1
25 | 81.4 | 84 | 17 | 2040 | COc1cc(Cl)ccc1C(=O)Nc1cnc2[nH]cc(-c3cccnc3)c2c1
45 | 21.9 | 103 | 27 | 988 | CC(C)(C)c1cccc(CNc2cnc3[nH]cc(-c4cccnc4)c3c2)c1
66 | 5.9 | 88 | 28 | 389 | Nc1cccc(-c2c[nH]c3ncc(NCc4cc(F)cc(F)c4)cc23)c1
389 | – | 88 | 64 | 3010 | O=C(Nc1cnc2[nH]cc(-c3cncc(F)c3)c2c1)c1ccco1
89 | 6.3 | 101 | 36 | 561 | Nc1ccc(-c2c[nH]c3ncc(NCc4cc(F)cc(F)c4)cc23)cc1
454 | – | 74 | 61 | 653 | Fc1cccc(/C=N/c2cnc3[nH]cc(-c4cncc(F)c4)c3c2)c1
45 | 15.3 | 96 | 18 | 689 | FC(F)(F)c1cccc(CNc2cnc3[nH]cc(-c4cccnc4)c3c2)c1
569 | 0.8 | 91 | 105 | 465 | COc1ccc(-c2cnc3ccc(NCc4cc(F)cc(F)c4)cn23)cc1
46 | 36.9 | 83 | 28 | 1700 | c1cncc(-c2c[nH]c3ncc(NCc4ccc(N5CCOCC5)cc4)cc23)c1
– | – | 111 | 85 | – | CCCc1ccc(-c2c[nH]c3ncc(NCc4cc(F)cc(F)c4)cc23)cc1
324 | – | 99 | 74 | 2460 | Fc1cc(F)cc(CNc2cnc3[nH]cc(C4=CCCCC4)c3c2)c1
510 | – | 86 | 70 | 1350 | Fc1ccc(/C=N/c2cnc3[nH]cc(-c4cncc(F)c4)c3c2)cc1
– | – | 126 | 99 | – | COc1ccc(-c2cnc3ccc(NC4CCCC4)cn23)cc1
476 | – | 106 | 80 | > 5000 | Fc1cc(F)cc(CNc2cnc3[nH]cc(-c4ccc5ccccc5c4)c3c2)c1
667 | – | 94 | 70 | 3660 | O=S(=O)(Nc1cnc2[nH]cc(-c3cncc(F)c3)c2c1)c1ccc(F)cc1
75 | 7.8 | 102 | 26 | 590 | Nc1ncc(-c2c[nH]c3ncc(NCc4cc(F)cc(F)c4)cc23)cn1
252 | – | 108 | 65 | 2210 | Fc1cc(F)cc(CNc2cnc3[nH]cc(-c4cc5ccccc5s4)c3c2)c1
1870 | – | 106 | 88 | 5680 | O=C(Nc1cc(C(F)(F)F)cc(C(F)(F)F)c1)Nc1cnc2[nH]cc(-c3cncc(F)c3)c2c1
– | – | 101 | 103 | – | COc1ccc(-c2cnc3ccc(NCc4ccc(N(C)C)cc4)cn23)cc1
762 | – | 105 | 89 | > 5000 | NC(=O)c1cccc(-c2c[nH]c3ncc(NCc4cc(F)cc(F)c4)cc23)c1
